Results published in patent publication US8343934B2, “Diverse lead compound autotaxin inhibitors” (University of Memphis, priority 2009, dated 2013).
“And” between values parts separate entries of the source, which are not always exact repeats. Equal values may be shown once.

Molecular target: T1, ATX (Homo sapiens, UniProt Q13822)
T1 construct: conditioned serum-free medium (CCM) from MDA-MB-435 cells as the source of ATX; endogenous in cells; host or cells: MDA-MB-435 cells (about 10x concentrated conditioned serum-free medium)
Experiment: ATX inhibition assay (FS-3 substrate)
Type: biochemical
Settings: for % ATX Acitivity (10 μM): 10 μM compound; for % ATX Acitivity (10 μM) / IC50: FS-3 substrate; for % Response: preliminary screen, FS-3 hydrolysis at one hour, normalized to vehicle control, mean±S.D., same values given at 10 μM in Table 5
Protocol: ATX inhibition was assayed using the substrate FS-3 (Echelon Biosciences, Inc., Salt Lake City, Utah, USA). The FS-3 assay used ˜10 times concentrated conditioned serum-free medium (CCM) from MDA-MB-435 cells as the source of ATX, while CCM comprised one-third of the total volume. The final volume for FS-3 was comprised of the substrate at varying concentrations and 30 μM charcoal-stripped fatty acid free BSA (Sigma Aldrich) in assay buffer (1 mM each CaCl2 and MgCl2, 5 mM KCl, 140 mM NaCl, 50 mM Tris pH 8.0).
All assays were performed in 96-well plates with data read at 1 minute intervals by a Synergy2 system (BioTek, Winooski, Vt.). The fluorescence produced upon the hydrolysis of FS-3 was monitored using an excitation wavelength of 485 nm and an emission wavelength of 528 nm at 37° C. (Ferguson et al., 2006). […] All readings were normalized to vehicle control after subtraction of fluorescence in the absence of CCM. Data are shown as the mean±S.D. of at least three wells.

[1] = Calculated IC50 data for the 30 active compounds

With `Cc1cc(C(O)(c2ccc(Nc3ccccc3)cc2)c2ccc(Nc3ccc(S(=O)(=O)O)cc3)cc2)ccc1N` (centres unmarked) [NSC 5014] the “% ATX Acitivity (10 μM)” value was 39 ± 4.3% and the IC50 (Table 5) was 1.27 µM.
`O=C1C(Cl)=C(Nc2ccc(C(=O)Nc3ccc4cc(S(=O)(=O)O)cc(S(=O)(=O)O)c4c3)cc2)C(=O)C(Cl)=C1Nc1ccc(C(=O)Nc2ccc3cc(S(=O)(=O)O)cc(S(=O)(=O)O)c3c2)cc1` [NSC 12859] was tested, and the “% ATX Acitivity (10 μM)” value was 27 ± 2.8% and the IC50 (Table 5) was 0.805 µM.
For `Nc1ccc2cc(S(=O)(=O)O)c(/N=N/c3ccc(-c4ccc(/N=N/c5c(S(=O)(=O)O)cc6cc(S(=O)(=O)O)cc(N)c6c5O)cc4)cc3)c(O)c2c1` [NSC 75779], the “% ATX Acitivity (10 μM)” value was 20 ± 5.7% and the IC50 (Table 5) was 1.26 µM.
For `Nc1ccc(/N=N/c2ccc(-c3ccc(/N=N/c4c(S(=O)(=O)O)cc5cc(S(=O)(=O)O)c(/N=N/c6ccc([N+](=O)[O-])cc6)c(N)c5c4O)cc3)cc2)c2ccc(S(=O)(=O)O)cc12` [NSC 77520], the “% ATX Acitivity (10 μM)” value was 32 ± 2.7% and the IC50 was 4.07 µM.
With `CC(C)(C)OC(=O)NC(CC(Cc1ccccc1)C(=O)O)C(=O)NC(CC(Cc1ccccc1)C(=O)O)C(=O)NC(CC(Cc1ccccc1)C(=O)O)C(=O)NCC(=O)Oc1ccc([N+](=O)[O-])cc1` (centres unmarked) [NSC 341348] the “% ATX Acitivity (10 μM)” value was 43 ± 2.8% and the IC50 was 2.5 µM.
`O=S(=O)(O)c1cc(O)c2ccc(Nc3ccc4c(O)cc(S(=O)(=O)O)cc4c3)cc2c1` [compound 1698] was tested, and the “% Response” value was 89 ± 5.1%.
With `Nc1ccc(C(=O)Nc2ccc(C(=O)Nc3ccc4c(O)cc(S(=O)(=O)O)cc4c3)cc2)cc1` [compound 1741] the “% Response” value was 60 ± 4.6%.
For `O=C(CC(C(=O)O)S(=O)(=O)O)Nc1ccc(S(=O)(=O)c2ccc(NC(=O)CC(C(=O)O)S(=O)(=O)O)cc2)cc1.[Na+]` (centres unmarked) [compound 2460], the “% Response” value was 99 ± 3.1%.
For `O=C(NC(CSSCC(NC(=O)c1ccc([N+](=O)[O-])cc1)C(=O)O)C(=O)O)c1ccc([N+](=O)[O-])cc1` (centres unmarked) [compound 2532], the “% Response” value was 95 ± 5.7%.
With `CC(=O)NS(=O)(=O)c1ccc(NC(=O)c2ccccc2C(=O)O)cc1` [compound 4368] the “% Response” value was 99 ± 2.8%.
With `Cc1c(N)cc(S(=O)(=O)O)cc1NC(=O)c1cccc([N+](=O)[O-])c1` [compound 5000] the “% Response” value was 100 ± 5.5%.
`Cc1cc(C(O)(c2ccc(Nc3ccccc3)cc2)c2ccc(Nc3ccc(S(=O)(=O)O)cc3)cc2)ccc1N.[Na+]` (centres unmarked) [compound 5014] was tested, and the IC50 [1] was 1.27 µM and the “% Response” value was 39 ± 4.3%.
In the case of `O=C(O)c1ccccc1N=N/C(=N\Nc1cc(S(=O)(=O)O)ccc1O)c1ccccc1` [compound 5359], the “% Response” value is reported as 94 ± 2.6%.
For `Nc1c(N=Nc2ccc([N+](=O)[O-])cc2)c(S(=O)(=O)O)cc2cc(S(=O)(=O)O)c(N=Nc3ccc(-c4ccc(N=Nc5ccc(O)cc5)cc4)cc3)c(O)c12.[Na+]` [compound 7234], the IC50 [1] was 7.02 µM and the “% Response” value was 49 ± 6.1%.
For `O=C(O)c1ccc2c(c1Nc1ccc(-c3ccc(Nc4c(C(=O)O)ccc5c4C(=O)c4ccccc4C5=O)cc3)cc1)C(=O)c1ccccc1C2=O` [compound 7581], the “% Response” value was 70 ± 4.8%.
For `Cc1ccc(Nc2ccc(Nc3ccc(C)cc3S(=O)(=O)[O-])c3c2C(=O)c2ccccc2C3=O)c(S(=O)(=O)[O-])c1.[Na+].[Na+]` [compound 7795], the “% Response” value was 99 ± 5.0%.
`Cc1ccc(Nc2cccc3c2C(=O)c2cccc(Nc4ccc(C)c(S(=O)(=O)O)c4)c2C3=O)cc1S(=O)(=O)O` [compound 7804] was tested, and the “% Response” value was 96 ± 6.4%.
With `Cc1cc(-c2ccc(N=Nc3c(N)c(S(=O)(=O)O)cc4cc(S(=O)(=O)O)ccc34)c(C)c2)ccc1N=Nc1cc(S(=O)(=O)O)c2ccccc2c1N` [compound 7815] the IC50 [1] was 13.4 µM and the “% Response” value was 32 ± 5.5%.
With `Nc1c(N=Nc2ccc([N+](=O)[O-])cc2)c(S(=O)(=O)O)cc2cc(S(=O)(=O)O)c(N=Nc3ccccc3)c(O)c12` [compound 7820] the “% Response” value was 110 ± 5.7%.
For `O=C1C(c2[nH]c3ccc(S(=O)(=O)O)cc3c2O)=Nc2ccc(S(=O)(=O)O)cc21` [compound 8646], the “% Response” value was 88 ± 9.2%.
In the case of `Nc1c(N=Nc2ccc([N+](=O)[O-])cc2)c(S(=O)(=O)[O-])cc2cc(S(=O)(=O)[O-])c(N=Nc3ccc(-c4ccc(N=Nc5ccc(O)c(C(=O)[O-])c5)cc4)cc3)c(O)c12.[Na+].[Na+].[Na+]` [compound 8681], the “% Response” value is reported as 55 ± 5.5%.
With `CCOc1ccc(N=c2ccc3c(-c4c(Cl)ccc(Cl)c4C(=O)O)c4ccc(Nc5ccc(OCC)cc5S(=O)(=O)O)cc4oc-3c2)cc1.[Na+]` [compound 8682] the “% Response” value was 52 ± 7.7%.
In the case of `O=C(O)c1ccccc1-c1c2ccc(=Nc3ccccc3)cc-2oc2cc(Nc3ccc(S(=O)(=O)O)cc3)ccc12.[Na+]` [compound 11242], the “% Response” value is reported as 73 ± 3.7%.
For `Nc1c(S(=O)(=O)[O-])cc2cc(S(=O)(=O)[O-])ccc2c1N=Nc1ccc(-c2ccc(N=Nc3c(N)c(S(=O)(=O)[O-])cc4cc(S(=O)(=O)[O-])ccc34)c(S(=O)(=O)[O-])c2)cc1.[Na+].[Na+].[Na+].[Na+].[Na+]` [compound 11243], the IC50 [1] was 12.6 µM and the “% Response” value was 49 ± 6.1%.
With `Nc1ccc2cc(S(=O)(=O)O)cc(O)c2c1N=Nc1ccc(NC(=O)Nc2ccc(N=Nc3c(N)ccc4cc(S(=O)(=O)O)cc(O)c34)c(S(=O)(=O)O)c2)cc1S(=O)(=O)O` [compound 11244] the “% Response” value was 78 ± 7.0%.
For `Cc1cc(S(=O)(=O)O)ccc1N=c1ccc2c(-c3ccccc3C(=O)[O-])c3ccc(Nc4ccccc4C)cc3oc-2c1.[Na+]` [compound 11246], the IC50 [1] was 10.2 µM and the “% Response” value was 42 ± 6.0%.
`O=C(Nc1ccc(S(=O)(=O)c2ccc(NC(=O)Nc3ccc4cc(S(=O)(=O)O)ccc4c3)cc2)cc1)Nc1ccc2cc(S(=O)(=O)O)ccc2c1.[Na+]` [compound 12149] was tested, and the “% Response” value was 57 ± 6.5%.
In the case of `O=C(Nc1ccc(C(=O)Nc2cc(S(=O)(=O)O)cc3cccc(S(=O)(=O)O)c23)cc1)Nc1ccc(C(=O)Nc2cc(S(=O)(=O)O)cc3cccc(S(=O)(=O)O)c23)cc1.[Na+]` [compound 12188], the “% Response” value is reported as 105 ± 8.0%.
For `O=C(Nc1cccc(C(=O)Nc2ccc3cc(S(=O)(=O)O)cc(S(=O)(=O)O)c3c2)c1)Nc1cccc(C(=O)Nc2ccc3cc(S(=O)(=O)O)cc(S(=O)(=O)O)c3c2)c1.[Na+]` [compound 12856], the “% Response” value was 71 ± 5.4%.
`O=C(Nc1ccc2cc(S(=O)(=O)O)cc(S(=O)(=O)O)c2c1)Nc1ccc2cc(S(=O)(=O)O)cc(S(=O)(=O)O)c2c1.[Na+]` [compound 12857] was tested, and the “% Response” value was 100 ± 7.3%.
In the case of `COc1ccc(C(=O)Nc2ccc(/C=C/c3ccc(NC(=O)c4ccc(OC)cc4)cc3S(=O)(=O)O)c(S(=O)(=O)O)c2)cc1.[Na+]` [compound 12858], the “% Response” value is reported as 98 ± 7.4%.
With `O=C1C(Cl)=C(Nc2ccc(C(=O)Nc3ccc4cc(S(=O)(=O)O)cc(S(=O)(=O)O)c4c3)cc2)C(=O)C(Cl)=C1Nc1ccc(C(=O)Nc2ccc3cc(S(=O)(=O)O)cc(S(=O)(=O)O)c3c2)cc1.[Na+]` [compound 12859] the IC50 [1] was 0.805 µM and the “% Response” value was 27 ± 2.8%.
For `NS(=O)(=O)c1ccc(N=NNc2ccc(C(=O)O)cc2)cc1.[Na+]` [compound 13232], the “% Response” value was 101 ± 9.0%.
With `O=C(Nc1cc[c]([Sb](=[O])([OH])[OH])cc1)Nc1cc[c]([Sb](=[O])([OH])[OH])cc1` [compound 15408] the “% Response” value was 100 ± 7.9%.
With `O=C(Nc1ccc2c(O)c(N=Nc3ccccc3)c(S(=O)(=O)[O-])cc2c1)Nc1ccc2c(O)c(N=Nc3ccccc3)c(S(=O)(=O)[O-])cc2c1.[Na+].[Na+]` [compound 16223] the “% Response” value was 77 ± 9.8%.
In the case of `Cc1ccc(C(=O)Nc2ccc(S(=O)(=O)O)c3cc(S(=O)(=O)O)cc(S(=O)(=O)O)c23)cc1NC(=O)c1cccc(NC(=O)Nc2cccc(C(=O)Nc3cc(C(=O)Nc4ccc(S(=O)(=O)O)c5cc(S(=O)(=O)O)cc(S(=O)(=O)O)c45)ccc3C)c2)c1.Cc1ccc(C)c2c1c(NCCCCCCNc1cc(C)[n+](C)c3c(C)ccc(C)c13)cc(C)[n+]2C` [compound 32275], the “% Response” value is reported as 94 ± 6.5%.
With `CC(=O)Nc1ccc(C=Cc2ccc(NC(=O)Nc3ccc(C=Cc4ccc(NC(C)=O)cc4S(=O)(=O)O)c(S(=O)(=O)O)c3)cc2S(=O)(=O)O)c(S(=O)(=O)O)c1` [compound 34928] the “% Response” value was 51 ± 6.5%.
For `Cc1ccc(C(=O)Nc2ccc(S(=O)(=O)O)c3cc(S(=O)(=O)O)cc(S(=O)(=O)O)c23)cc1NC(=O)c1cccc(NC(=O)Nc2cccc(C(=O)Nc3cc(C(=O)Nc4ccc(S(=O)(=O)O)c5cc(S(=O)(=O)O)cc(S(=O)(=O)O)c45)ccc3C)c2)c1` [compound 34936], the “% Response” value was 73 ± 9.0% and 83 ± 5.8%.
`CC1=NN(c2ccc(/C=C/c3ccc(NC(=O)Nc4ccc(/C=C/c5ccc(N6N=C(C)C(N=Nc7ccccc7C(=O)O)C6=O)cc5S(=O)(=O)O)c(S(=O)(=O)O)c4)cc3S(=O)(=O)O)c(S(=O)(=O)O)c2)C(=O)C1N=Nc1ccccc1C(=O)O.[Na+]` (centres unmarked) [compound 34937] was tested, and the “% Response” value was 87 ± 3.1%.
